In one test the target is KRas G12D (Homo sapiens, UniProt P01116, G12D). The test can be described thus: biochemical.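 Also: TR-FRET displacement binding assay on KRas, read after a one-hour incubation at room temperature, IC50 fitted from percent-of-control values.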
The target of another test is KRas G12V (Homo sapiens, UniProt P01116, G12V). The experiment in a line: biochemical.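 Also: KRas binding measured by TR-FRET displacement at room temperature, IC50 fitted from percent of control values.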
Chain of KRas G12V (P01116 1-169 isoform P01116-2 G12V): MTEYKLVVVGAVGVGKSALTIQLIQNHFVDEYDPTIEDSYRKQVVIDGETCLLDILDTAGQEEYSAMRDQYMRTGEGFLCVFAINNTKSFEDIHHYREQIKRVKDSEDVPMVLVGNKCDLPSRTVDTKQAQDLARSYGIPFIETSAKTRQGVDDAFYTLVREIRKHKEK
The target of the next test is KRas G12R (Homo sapiens, UniProt P01116, G12R). The experiment in a line: biochemical.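 Also: TR-FRET displacement assay of compound binding to KRas, read after one hour at room temperature, potency from a four-parameter fit of percent-of-control values.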
Chain of KRas G12R (P01116 1-169 isoform P01116-2 G12R): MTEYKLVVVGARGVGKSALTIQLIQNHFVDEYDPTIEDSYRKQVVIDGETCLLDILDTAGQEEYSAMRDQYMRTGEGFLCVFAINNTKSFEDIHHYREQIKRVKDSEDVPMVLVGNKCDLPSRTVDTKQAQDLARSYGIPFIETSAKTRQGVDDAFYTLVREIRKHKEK
In another test the test system is pERK in MKN1 cells. The test can be described thus: Inhibition of KRas phosphorylation of ERK (Cisbio HTRF pERK assay). As to conditions: Homo sapiens, MKN-1, 3 h, read-out: Inhibition (HTRF IC50) of KRas-mediated Phosphorylation of ERK, MKN1. A general note: Time-resolved FRET reads energy transfer from a long-lived donor to a nearby acceptor.
The test system of another test is pERK in PSN1 cells. Described as above. As to conditions: Homo sapiens, PSN1, 3 h, read-out: Inhibition (HTRF IC50) of KRas-mediated Phosphorylation of ERK, PSN1.
The subject of a further test is pERK in ASPC1 cells. The test is described as above. The conditions noted are these: Homo sapiens, ASPC1, read-out: Inhibition (HTRF IC50) of KRas-mediated Phosphorylation of ERK, AsPC-1.
The test system of a further test is pERK in H727 cells. The description is as above. As to conditions: Homo sapiens, NCI-H727, read-out: Inhibition (HTRF IC50) of KRas-mediated Phosphorylation of ERK, H727.
In a further test the test system is pERK in A549 cells. The description is as above. As to conditions: Homo sapiens, A549, read-out: Inhibition (HTRF IC50) of KRas-mediated Phosphorylation of ERK, A549.
In a further test the test system is pERK in H460 cells. The test is described as above. As to conditions: Homo sapiens, NCI-H460, read-out: Inhibition (HTRF IC50) of KRas-mediated Phosphorylation of ERK, H460.
The next test has as its system pERK in HCT116 cells. Described as above. The conditions noted are these: Homo sapiens, HCT-116, read-out: Inhibition (HTRF IC50) of KRas-mediated Phosphorylation of ERK, HCT116.
Another test deals with pERK in H358 cells. The description is as above. As to conditions: Homo sapiens, NCI-H358, read-out: Inhibition (HTRF IC50) of KRas-mediated Phosphorylation of ERK, H358.

Where only a bound is given, the exact number is not on record here.

Chain of KRas G12D (P01116 1-169 isoform P01116-2 G12D): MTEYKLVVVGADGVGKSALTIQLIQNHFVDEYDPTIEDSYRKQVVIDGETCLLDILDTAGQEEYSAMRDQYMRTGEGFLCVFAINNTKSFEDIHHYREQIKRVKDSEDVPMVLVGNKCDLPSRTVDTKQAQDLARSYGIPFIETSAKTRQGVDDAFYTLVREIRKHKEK

As a reminder, the IC50 is the point on the concentration scale where inhibition reaches its midpoint. For `CCc1c(F)ccc2cc(O)cc(-c3ncc4c(N5CCCOC(CO)C5)nc(OC[C@@]56CCCN5C[C@H](F)C6)nc4c3F)c12` (stereo partly drawn) [Example 343, 5-ethyl-6-fluoro-4-(8-fluoro-2-(((2R,7aS)-2-fluorotetrahydro-1H-pyrrolizin-7a(5H)-yl)methoxy)-4-(2-(hydroxymethyl)-1,4-oxazepan-4-yl)pyrido[4,3-d]pyrimidin-7-yl)naphthalen-2-ol], the IC50 at KRas G12D is at most 2 nM; against KRas G12V, at most 2 nM; at KRas G12R, at most 2 nM; in the test with pERK in MKN1 cells, 4 nM; with pERK in PSN1 cells, 5.93 µM; in the test on pERK in ASPC1 cells, 60 nM. For the same compound, the IC50 came to 24 nM in the test with pERK in H727 cells; 91 nM in the test with pERK in A549 cells; 128 nM with pERK in H460 cells; 128 nM in the test with pERK in HCT116 cells; 7 nM in the test on pERK in H358 cells.

Regarding `C#Cc1c(F)ccc2cc(O)cc(-c3ncc4c(N5CCCC6(CC(O)C6)C5)nc(OC[C@@]56CCCN5C[C@H](F)C6)nc4c3F)c12` (stereo partly drawn) [Example 393, 6-(7-(8-ethynyl-7-fluoro-3-hydroxynaphthalen-1-yl)-8-fluoro-2-(((2R,7aS)-2-fluorohexahydro-1H-pyrrolizin-7a-yl)methoxy)pyrido[4,3-d]pyrimidin-4-yl)-6-azaspiro[3.5]nonan-2-ol], the half-inhibitory concentration (IC50) is at most 2 nM against KRas G12D; at most 2 nM against KRas G12V; at most 2 nM on KRas G12R; 8 nM in the test on pERK in MKN1 cells; 0.449 µM in the test on pERK in PSN1 cells; 68 nM in the test with pERK in ASPC1 cells. Also, the IC50 amounted to 24 nM in the test on pERK in H727 cells; 133 nM with pERK in A549 cells; 110 nM with pERK in H460 cells; 68 nM in the test with pERK in HCT116 cells; 20 nM with pERK in H358 cells.

With `CC1(O)COCCN(c2nc(OC[C@@]34CCCN3C[C@H](F)C4)nc3c(F)c(-c4cc(O)cc5ccc(F)c(Br)c45)ncc23)C1` (stereo partly drawn) [Example 400, 4-(7-(8-bromo-7-fluoro-3-hydroxynaphthalen-1-yl)-8-fluoro-2-(((2R,7aS)-2-fluorohexahydro-1H-pyrrolizin-7a-yl)methoxy)pyrido[4,3-d]pyrimidin-4-yl)-6-methyl-1,4-oxazepan-6-ol], the IC50 at KRas G12D is at most 2 nM; against KRas G12V, at most 2 nM; against KRas G12R it was at most 2 nM; with pERK in MKN1 cells, 7 nM; in the test on pERK in PSN1 cells it was 3.54 µM; in the test with pERK in ASPC1 cells, 27 nM. For the same compound, the IC50 came out at 87 nM in the test with pERK in H727 cells; 62 nM in the test with pERK in A549 cells; 41 nM in the test with pERK in H460 cells; 113 nM in the test on pERK in HCT116 cells; 9 nM in the test with pERK in H358 cells.

In the case of `CN(C)C(=O)c1cc2n(n1)CCCN(c1nc(OC[C@@]34CCCN3C[C@H](F)C4)nc3c(F)c(-c4cc(O)cc5ccc(F)c(Br)c45)ncc13)C2` [Example 412, 5-(7-(8-bromo-7-fluoro-3-hydroxynaphthalen-1-yl)-8-fluoro-2-(((2R,7aS)-2-fluorohexahydro-1H-pyrrolizin-7a-yl)methoxy)pyrido[4,3-d]pyrimidin-4-yl)-N,N-dimethyl-5,6,7,8-tetrahydro-4H-pyrazolo[1,5-a][1,4]diazepine-2-carboxamide], the IC50 is at most 2 nM at KRas G12D; at most 2 nM against KRas G12V; at most 2 nM on KRas G12R; 34 nM with pERK in MKN1 cells; 5.98 µM in the test with pERK in PSN1 cells; 19 nM in the test with pERK in ASPC1 cells. Moreover, the IC50 in the test on pERK in H727 cells turned out to be 51 nM; in the test on pERK in A549 cells, 242 nM; in the test with pERK in H460 cells, 413 nM; in the test with pERK in HCT116 cells, 586 nM; in the test on pERK in H358 cells, 11 nM.

In the case of `CN(C)C(=O)c1cc2n(n1)CCCN(c1nc(OC[C@@]34CCCN3C[C@H](F)C4)nc3c(F)c(-c4cc(O)cc5ccc(F)c(Cl)c45)ncc13)C2` [Example 427, 5-(7-(8-chloro-7-fluoro-3-hydroxynaphthalen-1-yl)-8-fluoro-2-(((2R,7aS)-2-fluorohexahydro-1H-pyrrolizin-7a-yl)methoxy)pyrido[4,3-d]pyrimidin-4-yl)-N,N-dimethyl-5,6,7,8-tetrahydro-4H-pyrazolo[1,5-a][1,4]diazepine-2-carboxamide], the IC50 on KRas G12D is at most 2 nM; at KRas G12V, at most 2 nM; on KRas G12R it was at most 2 nM; with pERK in MKN1 cells it was 84 nM; in the test on pERK in PSN1 cells it was 7.68 µM; in the test with pERK in ASPC1 cells, 32 nM. Also, the IC50 with pERK in H727 cells turned out to be 59 nM; in the test with pERK in A549 cells, 379 nM; in the test with pERK in H460 cells it was 878 nM; in the test with pERK in HCT116 cells, 916 nM; in the test on pERK in H358 cells, 52 nM.

Turning to `CCc1c(F)ccc2cc(O)cc(-c3ncc4c(N5CCCc6nn(C(=O)N(C)C)cc6C5)nc(OC[C@@]56CCCN5C[C@H](F)C6)nc4c3F)c12` [Example 353, 5-(7-(8-ethyl-7-fluoro-3-hydroxynaphthalen-1-yl)-8-fluoro-2-(((2R,7aS)-2-fluorohexahydro-1H-pyrrolizin-7a-yl)methoxy)pyrido[4,3-d]pyrimidin-4-yl)-N,N-dimethyl-5,6,7,8-tetrahydropyrazolo[4,3-c]azepine-2(4H)-carboxamide], the IC50 was at most 2 nM against KRas G12D; at most 2 nM at KRas G12V; at most 2 nM against KRas G12R; 24 nM in the test on pERK in MKN1 cells; 4.81 µM in the test on pERK in PSN1 cells; 7 nM in the test on pERK in ASPC1 cells. The half-maximal inhibitory concentration (IC50) with pERK in H727 cells was determined as 34 nM; with pERK in A549 cells, 80 nM; in the test on pERK in H460 cells, 149 nM; in the test with pERK in HCT116 cells it was 396 nM; in the test on pERK in H358 cells it was 19 nM.

For the compound `CCc1c(F)ccc2cc(O)cc(-c3ncc4c(N5CCC[C@@](C)(O)C5)nc(OC[C@@]56CCCN5[C@@H](COC(=O)N(C)C)CC6)nc4c3F)c12` [Example 512, ((3R,7aS)-7a-(((7-(8-ethyl-7-fluoro-3-hydroxynaphthalen-1-yl)-8-fluoro-4-((R)-3-hydroxy-3-methylpiperidin-1-yl)pyrido[4,3-d]pyrimidin-2-yl)oxy)methyl)hexahydro-1H-pyrrolizin-3-yl)methyl dimethylcarbamate], the IC50 on KRas G12D amounted to 5 nM; against KRas G12V it was 5 nM; against KRas G12R, 8 nM; with pERK in MKN1 cells, 14 nM; with pERK in PSN1 cells it was 2.83 µM; with pERK in ASPC1 cells it was 55 nM. Besides, the IC50 came out at 80 nM with pERK in H727 cells; 68 nM in the test with pERK in A549 cells; 130 nM in the test on pERK in H460 cells; 291 nM with pERK in HCT116 cells; 53 nM in the test with pERK in H358 cells.

On to `Oc1cc(-c2ncc3c(N4CC5CC(O)C(C5)C4)nc(OC[C@@]45CCCN4C[C@H](F)C5)nc3c2F)c2c(Cl)c(F)ccc2c1` (stereo partly drawn) [Example 421, 3-(7-(8-chloro-7-fluoro-3-hydroxynaphthalen-1-yl)-8-fluoro-2-(((2R,7aS)-2-fluorotetrahydro-1H-pyrrolizin-7a(5H)-yl)methoxy)pyrido[4,3-d]pyrimidin-4-yl)-3-azabicyclo[3,2,1]octan-6-ol], for which the IC50 against KRas G12D is 3 nM; against KRas G12V, at most 2 nM; on KRas G12R, at most 2 nM; with pERK in MKN1 cells, 4 nM; in the test on pERK in PSN1 cells, 1.5 µM; in the test with pERK in ASPC1 cells, 61 nM. Further, the half-inhibitory concentration (IC50) is 26 nM with pERK in H727 cells; 39 nM in the test with pERK in A549 cells; 73 nM with pERK in H460 cells; 70 nM in the test on pERK in HCT116 cells; 16 nM in the test with pERK in H358 cells.

As to `CCc1c(F)ccc2cc(O)cc(-c3ncc4c(N5CCC[C@@](C)(O)C5)nc(OCC5(CN6CCN(C)CC6)CC5)nc4c3F)c12` [Example 336, (R)-1-(7-(8-ethyl-7-fluoro-3-hydroxynaphthalen-1-yl)-8-fluoro-2-((1-((4-methylpiperazin-1-yl)methyl)cyclopropyl)methoxy)pyrido[4,3-d]pyrimidin-4-yl)-3-methylpiperidin-3-ol], the IC50 is at most 2 nM on KRas G12D; at most 2 nM at KRas G12V; at most 2 nM against KRas G12R; 4 nM in the test on pERK in MKN1 cells; 4.12 µM in the test on pERK in PSN1 cells; 32 nM with pERK in ASPC1 cells. Moreover, the IC50 in the test on pERK in H727 cells amounted to 129 nM; with pERK in A549 cells, 75 nM; with pERK in H460 cells, 162 nM; with pERK in HCT116 cells, 208 nM; in the test with pERK in H358 cells, 59 nM.

Values taken from patent US12398154B2, “Azaquinazoline pan-KRas inhibitors” (Mirati Therapeutics, Inc., priority 2020, dated 2025).
